Reference: US11339140B2, “Compositions and methods comprising substituted 2-aminoimidazoles” (Curza Global, LLC, priority 2017, dated 2022)
≈ marks a conversion by molar mass, not a printed value.

Key:
Candida albicans = conditions: cited from earlier work
[1] = tested on: Mycobacterium tuberculosis; conditions: cited from earlier work
breast cancer = assay: cancer-selective cell death with Zn2+; type: cell-based; conditions: caspase-independent mechanism
[2] = tested on: primary metastatic cells derived from breast cancer patients; assay: activity against primary metastatic cells derived from breast cancer patients; type: cell-based, human; conditions: patients treated with multiple frontline chemotherapeutics
[3] = tested on: mouse mammary tumor model; assay: mouse mammary tumor model; type: in vivo

Row | SMILES | MIC100 against Candida albicans (Candida albicans) [µM] | IC50 against Mycobacterium tuberculosis [1] [µg/mL] | synergy with Zn2+ in inducing cancer-selective cell death (breast cancer) | efficacy against primary metastatic cells from breast cancer patients [2] | in vivo efficacy [3]
1 | COc1ccc(Cc2nc(NC3=NC(=O)N(C)C3=O)n(C)c2Cc2ccc(O)cc2)cc1 [Naamidine A] | 0.78 (≈ 0.338 µg/mL) | 0.41 (≈ 0.946 µM) | – | – | –
2 | COc1ccc(-c2c(Cc3ccccc3)[nH]/c(=N\C(=O)c3ccccc3F)n2C)cc1 [ZNA] | – | – | synergizes strongly with Zn^2+ to induce cancer-selective cell death | effective | in vivo efficacy was established
